Assay results: ChEMBL document CHEMBL5050844 (2019)

How the values were obtained:
[1] = Induction of anti-CD3/CD28 antibodies-stimulated human T cell activation at 4 uM assessed fold increase in IL-2 secretion measured by ELISA assay; type: functional, T cell line
[2] = Induction of anti-CD3/CD28 antibodies-stimulated human T cell activation at 1 uM assessed fold increase in IL-2 secretion measured by ELISA assay; type: functional, T cell line
[3] = Induction of anti-CD3 antibodies-stimulated human T cell activation at 1 uM assessed fold increase in IL-2 secretion measured by ELISA assay; type: functional, T cell line; also: reference of the scale not given here
[4] = Induction of anti-CD3/CD28 antibodies-stimulated human T cell activation at 4 uM assessed fold increase in CD25 expression measured by ELISA assay; type: functional, T cell line
[5] = Induction of anti-CD3/CD28 antibodies-stimulated human CD4+ T cell activation at 10 uM assessed fold increase in CD69 expression measured by flow cytometry analysis; type: functional, T cell line
[6] = Induction of anti-CD3/CD28 antibodies-stimulated human CD4+ T cell activation at 1.11 uM assessed fold increase in CD69 expression measured by flow cytometry analysis; type: functional, T cell line
[7] = Induction of anti-CD3/CD28 antibodies-stimulated human CD4+ T cell activation at 10 uM assessed fold increase in cell proliferation measured by flow cytometry analysis; type: functional, T cell line
[8] = Induction of anti-CD3/CD28 antibodies-stimulated human CD8+ T cell activation at 10 uM assessed fold increase in CD69 expression measured by flow cytometry analysis; type: functional, T cell line
[9] = Induction of anti-CD3/CD28 antibodies-stimulated human CD8+ T cell activation at 1.11 uM assessed fold increase in CD69 expression measured by flow cytometry analysis; type: functional, T cell line
[10] = Induction of anti-CD3/CD28 antibodies-stimulated human CD8+ T cell activation at 1.11 uM assessed fold increase in cell proliferation measured by flow cytometry analysis; type: functional, T cell line
[11] = Induction of anti-CD3 antibodies-stimulated human CD4+ T cell activation at 10 uM assessed fold increase in CD69 expression measured by flow cytometry analysis; type: functional, T cell line; also: reference of the scale not given here
[12] = Induction of anti-CD3 antibodies-stimulated human CD8+ T cell activation at 10 uM assessed fold increase in CD69 expression measured by flow cytometry analysis; type: functional, T cell line; also: reference of the scale not given here
[13] = Induction of anti-CD3 antibodies-stimulated human CD8+ T cell activation at 1.11 uM assessed fold increase in CD69 expression measured by flow cytometry analysis; type: functional, T cell line; also: reference of the scale not given here
[14] = Induction of anti-CD3 antibodies-stimulated human CD8+ T cell activation at 10 uM assessed fold increase in cell proliferation measured by flow cytometry analysis; type: functional, T cell line; also: reference of the scale not given here
[15] = Induction of anti-CD3 antibodies-stimulated human CD8+ T cell activation at 1.11 uM assessed fold increase in cell proliferation measured by flow cytometry analysis; type: functional, T cell line; also: reference of the scale not given here
[16] = Induction of anti-CD3/CD28 antibodies-stimulated human T cell activation at 10 uM assessed fold increase in GM-CSF secretion measured by ELISA assay; type: functional, T cell line
[17] = Induction of anti-CD3/CD28 antibodies-stimulated human T cell activation at 1.11 uM assessed fold increase in GM-CSF secretion measured by ELISA assay; type: functional, T cell line
[18] = Induction of anti-CD3 antibodies-stimulated human T cell activation at 10 uM assessed fold increase in GM-CSF secretion measured by ELISA assay; type: functional, T cell line; also: reference of the scale not given here
[19] = Induction of anti-CD3 antibodies-stimulated human T cell activation at 1.11 uM assessed fold increase in GM-CSF secretion measured by ELISA assay; type: functional, T cell line; also: reference of the scale not given here
[20] = Induction of anti-CD3/CD28 antibodies-stimulated human T cell activation at 1.11 uM assessed fold increase in TNF-alpha secretion measured by ELISA assay; type: functional, T cell line
[21] = Induction of anti-CD3 antibodies-stimulated human T cell activation at 10 uM assessed fold increase in TNF-alpha secretion measured by ELISA assay; type: functional, T cell line; also: reference of the scale not given here
[22] = Induction of anti-CD3 antibodies-stimulated human T cell activation at 1.11 uM assessed fold increase in TNF-alpha secretion measured by ELISA assay; type: functional, T cell line; also: reference of the scale not given here
[23] = Induction of anti-CD3/CD28 antibodies-stimulated human T cell activation at 1.11 uM assessed fold increase in IFN-gamma secretion measured by ELISA assay; type: functional, T cell line
[24] = Induction of anti-CD3 antibodies-stimulated human T cell activation at 1.11 uM assessed fold increase in IFN-gamma secretion measured by ELISA assay; type: functional, T cell line; also: reference of the scale not given here
[25] = Induction of allogenic human T cell activation at 3 uM assessed fold increase in cell proliferation; type: functional, T cell line
[26] = Induction of anti-CD3 antibodies-stimulated human exhausted T cell activation assessed fold increase in IFN-gamma secretion measured by ELISA assay; type: functional, T cell line; also: reference of the scale not given here
[27] = Induction of anti-CD3 antibodies-stimulated human exhausted T cell activation assessed fold increase in IL-2 secretion measured by ELISA assay; type: functional, T cell line; also: reference of the scale not given here
[28] = Induction of anti-CD3 antibodies-stimulated human exhausted T cell activation assessed fold increase in GM-CSF secretion measured by ELISA assay; type: functional, T cell line; also: reference of the scale not given here
[29] = Induction of anti-CD3 antibodies-stimulated human exhausted CD4+ T cell activation assessed fold increase in CTLA4 expression measured by flow cytometry analysis; type: functional, T cell line; also: reference of the scale not given here
[30] = Induction of anti-CD3/CD28 antibodies-stimulated human anergic T cell activation at 10 uM assessed fold increase in IFN-gamma secretion measured by ELISA assay; type: functional, T cell line
[31] = Induction of anti-CD3/CD28 antibodies-stimulated human anergic T cell activation at 0.37 uM assessed fold increase in IFN-gamma secretion measured by ELISA assay; type: functional, T cell line
B cell = assay: Induction of anti-IgM-stimulated human CD20+ B cell activation at 10 to 1000 uM assessed as increase in CD69 expression measured as mean fluorescence intensity AUC by flow cytometry analysis; type: functional, cell-based; conditions: dose 10-1000 µM
[32] = Induction of activation of human CD56+ CD3- NK cells co-cultured with human K562 cells in 1:1 ratio and assessed as increase in IFN-gamma secretion at 10 uM measured by ELISA assay; type: functional, Natural killer cell
[33] = Induction of activation of human CD56+ CD3- NK cells co-cultured with human K562 cells in 1:1 ratio and assessed as increase in TNF-alpha secretion at 10 uM measured by ELISA assay; type: functional, Natural killer cell
[34] = Induction of activation of human CD56+ CD3- NK cells co-cultured with human K562 cells in 1:1 ratio and assessed as increase in IFN-gamma secretion at 2.5 uM measured by ELISA assay; type: functional, Natural killer cell
[35] = Induction of activation of human CD56+ CD3- NK cells co-cultured with human K562 cells in 1:1 ratio and assessed as increase in IFN-gamma secretion at 0.625 uM measured by ELISA assay; type: functional, Natural killer cell
[36] = Induction of activation of human CD56+ CD3- NK cells co-cultured with human K562 cells in 1:1 ratio and assessed as increase in TNF-alpha secretion at 2.5 uM measured by ELISA assay; type: functional, Natural killer cell
[37] = Induction of activation of human CD56+ CD3- NK cells co-cultured with human K562 cells in 1:1 ratio and assessed as increase in TNF-alpha secretion at 0.625 uM measured by ELISA assay; type: functional, Natural killer cell

Row | SMILES | fold change (FC) [2] | fold change (FC) [3] | fold change (FC) [5] | fold change (FC) [6] | fold change (FC) [7] | fold change (FC) [8] | fold change (FC) [9] | fold change (FC) [10] | fold change (FC) [11] | fold change (FC) [12] | fold change (FC) [13] | fold change (FC) [14] | fold change (FC) [15] | fold change (FC) [25] | fold change (FC) [26] | fold change (FC) [27] | fold change (FC) [28] | fold change (FC) [29] | fold change (FC) [30] | fold change (FC) [31] | further results
1 | C[C@H](Cc1nncn1C)c1cccc(N2Cc3c(cc(CN4CC[C@H](F)C4)cc3C(F)(F)F)C2=O)c1 | >=7.5 | 0.151 | >1.601 | >1.601 | >4 | 1.201 | 1.201 | >4 | >1.601 | 1.401 | 1.401 | >4 | >4 | 2.01 | >1.61 | >3.01 | >1.61 | >1.61 | >4.01 | >4.01 | fold change (FC) [1]: >=7.5; fold change (FC) [4]: 1.31; fold change (FC) [16]: >4; fold change (FC) [17]: >4; fold change (FC) [18]: >4; fold change (FC) [19]: 2.01; fold change (FC) [20]: 2.01; fold change (FC) [21]: 1.51; fold change (FC) [22]: 2.01; fold change (FC) [23]: >4; fold change (FC) [24]: 3.01; AUC (B cell): 1.01; fold change (FC) [32]: >=5; fold change (FC) [33]: 2.01; fold change (FC) [34]: >=5; fold change (FC) [35]: 2.01; fold change (FC) [36]: >=5; fold change (FC) [37]: 2.01
2 | C[C@H](Sc1nncn1C)c1cccc(NC(=O)c2cc(C(=O)N3CC[C@H](O)C3)ccn2)c1 | <=1 | <=0.05 | >1.601 | 1.401 | >4 | 1.201 | 1.201 | >4 | >1.601 | 1.401 | 1.401 | >4 | >4 | <=2 | <=1.4 | <=2.5 | <=1.4 | <=1.4 | 2.51 | <=2.5 | fold change (FC) [1]: <=1; fold change (FC) [4]: 1.01; fold change (FC) [16]: >4; fold change (FC) [17]: 2.01; fold change (FC) [18]: 2.01; fold change (FC) [19]: 2.01; fold change (FC) [20]: 2.01; fold change (FC) [21]: 2.01; fold change (FC) [22]: 1.51; fold change (FC) [23]: 2.01; fold change (FC) [24]: 3.01; AUC (B cell): < 0.5; fold change (FC) [32]: 1.01; fold change (FC) [33]: <=1; fold change (FC) [34]: <=1; fold change (FC) [35]: <=1; fold change (FC) [36]: <=1; fold change (FC) [37]: <=1
3 | COC1CN(Cc2cc3c(c(C(F)(F)F)c2)CN(c2cccc([C@@](C)(F)C(F)(F)c4nncn4C)c2)C3=O)C1 | 5 | 0.151 | 1.401 | 1.201 | >4 | 1.201 | 1.201 | 3.01 | >1.601 | 1.401 | 1.201 | >4 | 3.01 | <=2 | >1.61 | <=2.5 | >1.61 | >1.61 | >4.01 | <=2.5 | fold change (FC) [1]: >=7.5; fold change (FC) [4]: 1.31; fold change (FC) [16]: 2.01; fold change (FC) [17]: 2.01; fold change (FC) [18]: 2.01; fold change (FC) [19]: 1.51; fold change (FC) [20]: 1.51; fold change (FC) [21]: 1.51; fold change (FC) [22]: <=1.5; fold change (FC) [23]: <=2; fold change (FC) [24]: 3.01; fold change (FC) [32]: >=5; fold change (FC) [33]: >=5; fold change (FC) [34]: >=5; fold change (FC) [35]: 2.01; fold change (FC) [36]: 2.01; fold change (FC) [37]: 1.01
4 | Cn1cnnc1CC1(c2cccc(N3Cc4c(cc(CN5CCC6(CC6)C5)cc4C(F)(F)F)C3=O)c2)COC1 | >=7.5 | >=0.201 | >1.601 | >1.601 | >4 | 1.201 | 1.201 | >4 | >1.601 | 1.401 | 1.401 | >4 | >4 | >3 | <=1.4 | 2.51 | 1.41 | >1.61 | >4.01 | <=2.5 | fold change (FC) [16]: >4; fold change (FC) [17]: >4; fold change (FC) [18]: >4; fold change (FC) [19]: 2.01; fold change (FC) [20]: 2.01; fold change (FC) [21]: 2.01; fold change (FC) [22]: 2.01; fold change (FC) [23]: >4; fold change (FC) [24]: >4; AUC (B cell): > 1.51; fold change (FC) [32]: >=5; fold change (FC) [33]: >=5; fold change (FC) [34]: >=5; fold change (FC) [35]: 2.01; fold change (FC) [36]: >=5; fold change (FC) [37]: 2.01
5 | C[C@@H](Sc1nncn1C)c1cccc(NC(=O)c2cccc(C(F)(F)F)n2)c1 | 1.01 | 0.051 | 1.401 | 1.201 | >4 | 1.201 | <=1.2 | 2.01 | 1.401 | 1.201 | 1.201 | >4 | 3.01 | <=2 | <=1.4 | <=2.5 | <=1.4 | <=1.4 | <=2.5 | <=2.5 | fold change (FC) [1]: 1.01; fold change (FC) [4]: 1.01; AUC (B cell): < 0.5; fold change (FC) [32]: 1.01; fold change (FC) [33]: 1.01; fold change (FC) [34]: 1.01; fold change (FC) [35]: <=1; fold change (FC) [36]: 1.01; fold change (FC) [37]: 1.01
